Laboratory results from PubChem BioAssay AID1918993 (Molecular Pharmacology Branch, DTP, NCI, 2023).

System: 233499-124-R-J3-PDC complex spheroid growth
Assay: Anticancer human tumor 233499-124-R-J3-PDC patient-derived colon adenocarcinoma cell line growth inhibition [AhR]
Settings: for viability, T/C: stronger effect = lower value
Description: Multicellular complex tumor spheroid response to aryl hydrocarbon receptor antagonists in combination with a variety of drugs and investigational agents in selected tumor cell lines
The current study was undertaken to assess response to aryl hydrocarbon receptor antagonists in combination with standard-of-care drugs and investigational agents in solid tumor complex spheroid models. Complex spheroids include a stromal component modeled by human endothelial cells (HUVEC) and fibroblasts modeled by human mesenchymal stem cells (MSCs). The concentration ranges selected for each drug and investigational agent were based upon clinically achievable concentrations if the clinical Cmax of the agent was known.
Compounds. The drugs and investigational agents: BAY 2416964 (NSC825713), GNF351 (NSC835774), CH-223191 (NSC835775), CPI-455 (NSC825282), aza-TdCyd (NSC777586), decitabine (NSC127716), belinostat (NSC758774), entinostat (NSC756642), pevonedistat (NSC761192), tazemetostat (NSC777109), talazoparib (NSC765396), olaparib (NSC753686), selinexor (NSC780203), nedisertib (M3814, NSC802822), bortezomib (NSC756655), venetoclax (NSC766270), doxorubicin (NSC123127), elimusertib (BAY189344, NSC800525), ceralasertib (AZD6738, NSC777638), TAK-243 (NSC785004), alisertib (NSC759677), etoposide (NSC141540), topotecan (NSC609699), eribulin (NSC707389), gemcitabine (NSC613327), carboplatin (NSC241240), cisplatin (NSC119875), and SN-38 (NSC673596) were obtained from the National Cancer Institute (NCI) Developmental Therapeutics Program Chemical Repository (32). The FDA-approved anticancer drug set is available from the Developmental Therapeutics Program at https://dtp.cancer.gov/organization/dscb/obtaining/available plates.htm. […] The stock solutions were prepared in dimethyl sulfoxide (DMSO, Sigma-Aldrich, St. Louis, MO, cat. D2650), except for the platinum compounds which were prepared in saline (Quality Biological, Gaithersburg, MD, cat. 114-055-101), at 800-fold the tested concentration and stored at -70 degrees C prior to their use. All drugs and investigational agents were tested over a range starting from a high concentration at or near the clinical Cmax and decreasing in half-log increments. If the clinical Cmax for an agent had not been determined, the highest concentration tested was 10 microM (Table 1).
Cell Culture. All cells were maintained in an incubator at 37 degrees C and 5% CO2 with 95% humidity. The PDC lines were cultured according to standard operating procedures established by the NCI PDMR (https://pdmr.cancer.gov). Briefly, all PDCs were thawed and cultured in Matrigel-coated flasks prepared with a working solution of 1X Ham's F-12 nutrient mix, without supplementation (Invitrogen, Waltham, MA, cat. 11765054), 100 U/mL penicillin-streptomycin (Invitrogen, cat. 15140122), and 2.5% Matrigel (Corning Inc., Corning, NY, cat. 354248) for the first three passages. All PDCs were cultured in complete DMEM/F-12 media containing advanced DMEM/F-12 (Invitrogen, cat. 12634028), 4.9% defined fetal bovine serum, heat inactivated (HyClone Laboratories Inc., Logan, UT, cat. SH30070.03HI), 389 ng/mL hydrocortisone (Sigma-Aldrich, cat. H4001), 9.7 ng/mL human EGF recombinant protein (Invitrogen, cat. PHG0313), 23.4 microg/mL adenine (Sigma-Aldrich, cat. A2786), 97.3 U/mL penicillin-streptomycin (Invitrogen, cat. 15140122), 1.9 mM L-glutamine (Invitrogen, cat. 25030081), and 9.7 microM Y-27632 dihydrochloride (Tocris Bioscience, Bristol, United Kingdom, cat. 1254). The PDCs were cultured in complete DMEM/F12 media without 10 microM Y-27632 dihydrochloride for at least two passages prior to the screen. The established cell lines NCI-H1341 and […] were cultured in DMEM/F-12, HEPES (Invitrogen, cat. 11330032), 5% defined fetal bovine serum (HyClone Laboratories Inc., cat. SH30070.03), ITS premix universal culture supplement [insulin (5 microg/mL), transferrin (5 microg/mL), and selenious acid (5 ng/mL)] […]

[1] = curve of first compound, second compound 0.1 µM
[2] = curve of first compound, second compound 0.316 µM
[3] = curve of first compound, second compound 1 µM
[4] = curve of first compound, second compound 3.16 µM
[5] = curve of first compound, second compound 10 µM
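Note: spheroids exposed to agents for seven days before reading.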

Nc1ncn(C2CC(O)C(CO)S2)c(=O)n1 (centres undefined) + Cc1ccccc1N=Nc1ccc(NC(=O)c2ccnn2C)c(C)c1
IC50 [1]: > 300 nM | IC50 [2]: > 300 nM | IC50 [3]: > 300 nM | IC50 [4]: > 300 nM | IC50 [5]: > 300 nM | viability, T/C (second compound 0.1 µM, first compound 0.000949 µM): 91.9% | viability, T/C (second compound 0.1 µM, first compound 0.003 µM): 103% | viability, T/C (second compound 0.1 µM, first compound 0.00949 µM): 87.7% | viability, T/C (second compound 0.1 µM, first compound 0.03 µM): 108% | viability, T/C (second compound 0.1 µM, first compound 0.0949 µM): 109% | viability, T/C (second compound 0.1 µM, first compound 0.3 µM): 111% | viability, T/C (second compound 0.316 µM, first compound 0.000949 µM): 99.1% | viability, T/C (second compound 0.316 µM, first compound 0.003 µM): 114% | viability, T/C (second compound 0.316 µM, first compound 0.00949 µM): 96.3% | viability, T/C (second compound 0.316 µM, first compound 0.03 µM): 107% | viability, T/C (second compound 0.316 µM, first compound 0.0949 µM): 105% | viability, T/C (second compound 0.316 µM, first compound 0.3 µM): 84.7% | viability, T/C (second compound 1 µM, first compound 0.000949 µM): 110% | viability, T/C (second compound 1 µM, first compound 0.003 µM): 114% | viability, T/C (second compound 1 µM, first compound 0.00949 µM): 95% | viability, T/C (second compound 1 µM, first compound 0.03 µM): 114% | viability, T/C (second compound 1 µM, first compound 0.0949 µM): 116% | viability, T/C (second compound 1 µM, first compound 0.3 µM): 101% | viability, T/C (second compound 3.16 µM, first compound 0.000949 µM): 101% | viability, T/C (second compound 3.16 µM, first compound 0.003 µM): 108% | viability, T/C (second compound 3.16 µM, first compound 0.00949 µM): 107% | viability, T/C (second compound 3.16 µM, first compound 0.03 µM): 107% | viability, T/C (second compound 3.16 µM, first compound 0.0949 µM): 109% | viability, T/C (second compound 3.16 µM, first compound 0.3 µM): 107% | viability, T/C (second compound 10 µM, first compound 0.000949 µM): 104% | viability, T/C (second compound 10 µM, first compound 0.003 µM): 99.3% | viability, T/C (second compound 10 µM, first compound 0.00949 µM): 107% | viability, T/C (second compound 10 µM, first compound 0.03 µM): 113% | viability, T/C (second compound 10 µM, first compound 0.0949 µM): 94.8% | viability, T/C (second compound 10 µM, first compound 0.3 µM): 99.3%

Nc1ncn(C2CC(O)C(CO)O2)c(=O)n1 (centres undefined) + Cc1ccccc1N=Nc1ccc(NC(=O)c2ccnn2C)c(C)c1
IC50 [1]: > 1000 nM | IC50 [2]: > 1000 nM | IC50 [3]: > 1000 nM | IC50 [4]: > 1000 nM | IC50 [5]: > 1000 nM | viability, T/C (second compound 0.1 µM, first compound 0.00316 µM): 102% | viability, T/C (second compound 0.1 µM, first compound 0.01 µM): 104% | viability, T/C (second compound 0.1 µM, first compound 0.0316 µM): 91.7% | viability, T/C (second compound 0.1 µM, first compound 0.1 µM): 98.6% | viability, T/C (second compound 0.1 µM, first compound 0.316 µM): 91.5% | viability, T/C (second compound 0.1 µM, first compound 1 µM): 111% | viability, T/C (second compound 0.316 µM, first compound 0.00316 µM): 81% | viability, T/C (second compound 0.316 µM, first compound 0.01 µM): 91.6% | viability, T/C (second compound 0.316 µM, first compound 0.0316 µM): 93.6% | viability, T/C (second compound 0.316 µM, first compound 0.1 µM): 82.9% | viability, T/C (second compound 0.316 µM, first compound 0.316 µM): 102% | viability, T/C (second compound 0.316 µM, first compound 1 µM): 84.5% | viability, T/C (second compound 1 µM, first compound 0.00316 µM): 93.2% | viability, T/C (second compound 1 µM, first compound 0.01 µM): 104% | viability, T/C (second compound 1 µM, first compound 0.0316 µM): 105% | viability, T/C (second compound 1 µM, first compound 0.1 µM): 107% | viability, T/C (second compound 1 µM, first compound 0.316 µM): 103% | viability, T/C (second compound 1 µM, first compound 1 µM): 113% | viability, T/C (second compound 3.16 µM, first compound 0.00316 µM): 109% | viability, T/C (second compound 3.16 µM, first compound 0.01 µM): 97.3% | viability, T/C (second compound 3.16 µM, first compound 0.0316 µM): 107% | viability, T/C (second compound 3.16 µM, first compound 0.1 µM): 92.5% | viability, T/C (second compound 3.16 µM, first compound 0.316 µM): 103% | viability, T/C (second compound 3.16 µM, first compound 1 µM): 97.4% | viability, T/C (second compound 10 µM, first compound 0.00316 µM): 116% | viability, T/C (second compound 10 µM, first compound 0.01 µM): 114% | viability, T/C (second compound 10 µM, first compound 0.0316 µM): 108% | viability, T/C (second compound 10 µM, first compound 0.1 µM): 106% | viability, T/C (second compound 10 µM, first compound 0.316 µM): 115% | viability, T/C (second compound 10 µM, first compound 1 µM): 114%

Cc1cncc(-c2nc(NCCc3c[nH]c4ccccc34)c3ncn(C(C)C)c3n2)c1
viability, T/C (compound 0.1 µM): 96.2% [middle of 20 runs] | viability, T/C (compound 0.316 µM): 86.2% [middle of 19 runs] | viability, T/C (compound 1 µM): 78.4% [middle of 20 runs] | IC50 (compound alone, run of 07/18/2022): 4.98 µM [middle of 23 runs]
